Measured values published in article PMC12291851, “Hydrogen Sulfide (H2S)-Donating Formyl Peptide Receptor 2 (FPR2) Agonists: Design, Synthesis, and Biological Evaluation in Primary Mouse Microglia Culture” (Antioxidants, 2025).

Legend:
HepG2 cells = assay: Intracellular H2S release with WSP-1 probe; assay type: cell-based, human; conditions: HepG2, tested concentrations 100-300 μM, 60 min
Description: All cell culture reagents were purchased from S.I.A.L. S.r.l. (Rome, Italy). WSP-1 (Washington State Probe-1, 3′-methoxy-3-oxo-3H-spiro[isobenzofuran-1,9′-xanthen]-6′-yl 2-(pyridine-2-yl-disulfanyl benzoate), was obtained from Cayman Chemical (Cayman, Ann Arbor, MI, USA). HepG2, human hepatocellular carcinoma cells, was obtained from American Type Culture Collection (ATCC, Bethesda, MD, USA). Human hepatocellular carcinoma cells (HepG2) were cultured in Minimum Essential Eagle’s Medium. This medium was supplemented with 10% (v/v) Fetal Bovine Serum, 1% (v/v) Glutamine and 1% (v/v) Penicillin-Streptomycin, 1% non-essential amino acids. Cells were cultivated at 37 °C with 5% CO2 at saturated humidity.
These experiments were carried out as already described. HepG2 cells were cultured up to about 90% confluence, and 24 h before the experiment cells were seeded into a 96-well flat bottom black plate (50,000 cells per well). After 24 h, the medium was replaced and cells were incubated at 37 °C for 30 min with a 10 mM solution of the fluorescent WSP-1 probe, which is highly sensitive for H2S detection. After incubation, the supernatant was removed and replaced with different concentrations (100, 200, and 300 µM) of the tested compounds dissolved in HBSS buffer. […] ADT 100 µM was used as a slow H2S-donor reference compound. Data were analyzed by one-way ANOVA for repeated measures, followed by post hoc Bonferroni’s multiple comparison test. Results are expressed as mean ± SEM of 3 independent experiments in triplicate. Statistical significance was accepted at a level of p < 0.05.
Next, we assessed the intracellular H2S release of thioureas and thioamides in HepG2 cells. The compounds were tested at different concentrations (100–300 μM) to evaluate if the release was dose-dependent. We also assayed ADT-OH and TIA as reference H2S-donors, and 3a as a negative control. The results were normalized to the fluorescence signal obtained with 100 μM ADT-OH.

[1] = tested on: LPS-stimulated rat primary microglial cells and mice organotypic hippocampal cultures; conditions: LPS stimulation; ref [19],[20]; cited from earlier work
[2] = Cell-free H2S release fluorescence assay with probe 9 (7-azido-4-methylcoumarin); assay type: physicochemical; conditions: overall, 24 h and 48 h, PBS/DMSO 10%
Description: The H2S release fluorescence assay was carried out in a final volume of 100 μL PBS/DMSO 10% in black 96-well plates. Solutions with decreasing concentrations of each tested compound were prepared in PBS/DMSO 10%. Then, 50 μL of each solution was dispensed in triplicate in each well. Starting from a 10 mM stock solution, a 200 μM solution of probe 9 was prepared and stored in the dark until 50 μL was dispensed in each well. Blank wells containing only the probe at 100 μM in 100 μL of PBS/DMSO 10% are also prepared. A H2S calibration curve was obtained by incubating solutions of NaSH with the probe under the same conditions, although a different plate was used to minimize interferences due to the diffusion of rapidly released H2S. After 24 h and 48 h incubation in a humidified incubator at 37 °C, 5% CO2, fluorescence reads are obtained from each well with a plate reader TECAN M1000 Pro (Tecan, Männedorf, Switzerland), at λex = 350 nm and λem = 440 nm. Each experiment was replicated at least three times. The data were processed using Microsoft Excel (Microsoft, Redmond, WA, USA) and GraphPad Prism 7 (GraphPad Software, La Jolla, CA, USA).
Compound 9 is a turn-on fluorescent probe that features an azido moiety which can be reduced to amine by H2S, leading to the formation of the fluorescent derivative 7-amino-4-methylcoumarin 10 (λex = 350 nm and λem = 440 nm, Scheme 2). We included NaHS in the assay as a positive control and 3a as a negative control.

[3] = Cell-free MTT-based H2S release assay; assay type: physicochemical; conditions: 24 h incubation in MEM with 10% DMSO
Description: Solutions at different concentrations of each compound in 100 µL of serum-free MEM/10% DMSO with 0.5 mg/mL 3-(4,5-dimethylthiazol-2yl)-2,5-diphenyltetrazolium bromide (MTT) were incubated for 5 h or 24 h in a humidified incubator at 37 °C in 5% CO2 atmosphere. The experimental design comprised blank wells containing only medium and MTT, and a H2S calibration curve obtained by incubating nine solutions at decreasing concentrations (100 µM to 0.01 µM) of NaHS in medium and MTT. At the end of incubation time, the supernatant was removed, the […] crystals were dissolved in 100 µL DMSO/EtOH (1:1 v/v), and absorbance values were read using a Victor 3 plate reader (PerkinElmer, Shelton, CT, USA) at 570 nm. H2S values are expressed as mean ± S.E.M. of the results of three independent experiments conducted in triplicate, and were plotted using GraphPad Prism 7.
To decipher such results and considering the redox properties of H2S, we questioned if H2S released by our compounds in the culture media could interfere with the conversion of MTT (3-[4,5-dimethylthiazol-2-yl]-2,5-diphenyl tetrazolium bromide) to formazan, which is usually related to cell viability. Thus, we ran cell-free experiments in which MTT was used as the substrate to capture the reductive action of H2S. We found, in agreement with Gerő et al., that some of our thioureas and thioamides reduced MTT to formazan after 24 h incubation in MEM with 10% DMSO.

[4] = tested on: HepG2 hepatocarcinoma cells; assay: MTT cell viability assay, MTT added directly to treated media; assay type: cell-based, human; conditions: HepG2, highest tested doses 200 and 20 µM, vehicle 5% DMSO
Description: The cytotoxicity of our compounds was assessed using the well-established MTT assay. HepG2 hepatocarcinoma cells were cultured in Minimum Essential Medium (MEM) (Euroclone, Pero, Italy), supplemented with 10% fetal bovine serum (Euroclone, Pero, Italy), 100 U/mL penicillin, and 100 µg/mL streptomycin sulfate, at 37 °C in a humidified incubator in 5% CO2 atmosphere. For the MTT assays, these cells were cultured up to about 90% confluence and were then seeded at a concentration of 20,000 cells per well in 96-well plates. After 24 h, the culture medium was replaced with solutions at various concentrations of each compound in MEM/DMSO 5% (v/v). Control wells were incorporated in the experimental design, consisting of vehicle (MEM/DMSO 5%) and pure medium controls.
In the first round of cytotoxicity assays, 0.5 mg/mL MTT was added to each well 2 or 24 h from treatment and left to incubate for 3–5 h. In the second round of cytotoxicity assays, at 2 or 24 h after treatment, treated media were removed, the cells were washed once in PBS, and fresh medium containing 0.5 mg/mL MTT was added to each well and left to incubate for 3–5 h.
Subsequently, the supernatant was removed, and the formazan crystals were dissolved in DMSO/EtOH 1:1 (100 µL/well). Absorbance values were then recorded from each well using a Victor 3 plate reader (PerkinElmer, Shelton, CT, USA) at 570 nm. All presented data were obtained from 3 to 5 experiments performed in triplicate. Cell viability values are expressed as mean ± S.E.M. and were plotted using GraphPad Prism 7.
Next, we assessed H2S release in a biological environment using human hepatocarcinoma HepG2 cells as a model. The intracellular release of H2S was detected with the WSP-1 probe, a turn-on fluorescent probe that selectively and irreversibly reacts with H2S. Considering that a high micromolar concentration of the test compounds is required to obtain a robust fluorescent signal, we first evaluated the compounds’ cytotoxicity after 2 h and 24 h of incubation with the MTT assay in HepG2 cells. […] We accounted for this by adding a vehicle control with 5% DMSO and a control without DMSO to our experimental design.

[5] = tested on: mouse models of autism spectrum disorder; design: method as in PMID 35215274; conditions: chronic administration; ref [22]; cited from earlier work
APP/PS1 mice = tested on: APP/PS1 mice; design: method as in PMID 34468933; conditions: in vivo administration, ref [21]; cited from earlier work
[6] = tested on: organotypic hippocampal cultures; design: method as in PMID 37775304, PMID 37947648; conditions: nanomolar doses; ref [24],[25]; cited from earlier work

SMILES | intracellular H2S release, WSP-1 fluorescence signal vs vehicle (HepG2 cells) | effect on LPS-induced pro- and anti-inflammatory cytokine levels [1] | H2S release detected with probe 9 in aqueous media [2] | absorbance signal (MTT reduction to formazan) indicative of H2S release [3] | mortality compared to vehicle (MTT) [4] | inflammatory markers and social behavior [5] | neuronal survival, microglial cell density and plaque load (APP/PS1 mice) | protective and anti-inflammatory properties [6]
N#Cc1ccc(C[C@H](NC(=O)Nc2ccc(F)cc2)C(=O)NCC2(c3ccc(F)c(Cl)c3)CC2)cc1 [3a, (S)-N-[[1-(3-chloro-4-fluorophenyl)cyclopropyl]methyl]-3-(4-cyanophenyl)-2-[3-(4-fluorophenyl)ureido]propenamide, reference compound] | comparable to that of the vehicle | anti-inflammatory properties | no response | no signal | > 50% | improved inflammatory markers, with a beneficial effect on social behavior | improvement of neuronal survival and decreased microglial cell density and plaque load | 
N#Cc1ccc(C[C@H](NC(=O)Nc2ccc(F)cc2)C(=O)N2CCc3ccc(F)cc32)cc1 [3c, (S)-1-[3-(4-cyanophenyl)-1-(6-fluoroindolin-1-yl)-1-oxopropan-2-yl]-3-(4-fluorophenyl)urea] |  |  |  |  |  |  |  | beneficial protective and anti-inflammatory properties at nanomolar doses
